Results: patent US11708366B2, “Heteroaryl substituted spiropiperidinyl derivatives and pharmaceutical uses thereof” (Novartis AG, priority 2020, dated 2023)

Target: LTC4S (Homo sapiens (Human), UniProt Q16873)
Experiment: Human whole blood HTRF assay (LTC4 release after calcium ionophore A23187)
Format: cell-based
Conditions: human whole blood diluted 1:3, 4 h incubation, calcium ionophore A23187 stimulation, LTC4 by HTRF; read-out: human whole blood HTRF IC50
Experimental: B. Human Whole Blood HTRF Assay
LTC4 synthase catalyzes the conversion of Leukotriene A4 (LTA4) to Leukotriene C4 (LTC4) in the presence of reduced glutathione (GSH) as a co-substrate. For testing the inhibition of LTC4S, compounds are prepared for either eight-point or sixteen-point dose response studies in 384-well Labcyte low dead volume (LDV) plates. For eight-point dose response studies, compounds are diluted 1:5 starting at 1 μM concentration in 90% DMSO. […] Compounds are studied in duplicates. Ten wells are filled with 90% DMSO which correspond to the stimulated and unstimulated control wells. […] The morning of the assay, whole blood is collected from three human donors. Donors must be non-smokers and must not have taken NSAIDs within the 48 hours prior to blood collection. The amount of blood collected per donor depends on the amount of compounds to be tested and the dose response format in which they are to be studied (about 8 mL of whole blood for either 22 compounds in 8-point dose response format or 11 compounds in 16-point dose response format). […] 50 μL of diluted blood are then dispensed into each assay plate well with pre-dispensed compounds and DMSO for the stimulated and unstimulated controls using a Thermo Scientific™ Multidrop™ Combi reagent dispenser, and incubated at 37° C. for 4 hours. Calcium ionophore A23187 is used to induce a rapid increase in intracellular levels of Ca^2+. The Ca^2+ functions as a universal second messenger in various immune cells, such as T cells, B cells and mast cells, and is used to induce degranulation and release of eicosanoids, including LTC4, by cells contained in the whole blood samples. […] All but the unstimulated control wells are subsequently stimulated by dispensing 1 μL of the 0.5 mg/mL calcium ionophore suspension using the Thermo Scientific™ Multidrop™ Combi reagent dispenser. Plates are incubated for 15 minutes at 37° C. Plates are then centrifuged at 300 g for 10 minutes at room temperature to pellet blood cells and stop the reaction. […] Plates are sealed and stored at −80° C.
In order to measure the amount of LTC4 released by cells in the human blood samples during calcium ionophore stimulation, supernatants are analyzed using the Cisbio LTC4 homogeneous time-resolved FRET (HTRF) kit (Cisbio #64LC4PEH). […] Ten serially diluted standard curve solutions are also dispensed in duplicate into each plate as instructed in the protocol. Blank controls and cryptate control wells are also prepared. Then, 5 μL of anti-LTC4-d2 working solution are dispensed into all the wells, but the cryptate control wells. Subsequently, 5 μL of anti-LTC4-Eu3+ cryptate working solution are dispensed into all the wells. Plates are then covered with a lid and incubated at room temperature for one hour with gentle orbital shaking (˜450 rpm). […] HTRF ratios are calculated for each well by dividing the 665 nm intensity by the 620 nm intensity, and multiplying the resulting ratio by 10,000. LTC4 standard curves are interpolated for each plate and used to convert the HTRF ratio readouts into the amount of LTC4 present in each well (in ng/mL). Parametric curve fitting is used to obtain inhibition curves and IC50 values.

Molecule | IC50
Nc1nc(N2CCC3(CCCC(=O)N3c3ccc(F)c(F)c3)CC2)c(F)c(-n2cccn2)n1 [Example 59, 9-(2-amino-5-fluoro-6-(1H-pyrazol-1-yl)primidin-4-yl)-1-(3,4-difluorophenyl)-1,9-diazaspiro[5.5]undecan-2-one] | 640 nM
Nc1nc(C2=CCC(F)(F)CC2)cc(N2CCC3(CCCC(=O)N3c3ccc(F)c(F)c3)CC2)n1 [Example 74, 9-(2-amino-6-(4,4-difluorocyclohex-1-en-1-yl)pyrimidin-4-yl)-1-(3,4-difluorophenyl)-1,9-diazaspiro[5.5]undecan-2-one] | 4 nM
CC(C)(O)c1nc(N2CCC3(CCCC(=O)N3c3ccc(F)c(F)c3)CC2)cc(C(F)(F)F)n1 [Example 80, 1-(3,4-difluorophenyl)-9-(2-(2-hydroxypropan-2-yl)-6-(trifluoromethyl)pyrimidin-4-yl)-1,9-diazaspiro[5.5]undecan-2-one] | 24 nM
Nc1nc(O[C@@H]2COC[C@H]2F)cc(N2CCC3(CCCC(=O)N3c3ccc(F)c(F)c3)CC2)n1 (racemic) [Example 102, rac-9-(2-amino-6-(((3R,4R)-4-fluorotetrahydrofuran-3-yl)oxy)pyrimidin-4-yl)-1-(3,4-difluorophenyl)-1,9-diazaspiro[5.5]undecan-2-one] | 9 nM
N#Cc1nc(N2CCC3(CCCC(=O)N3c3ccc(F)c(F)c3)CC2)cc(-n2cccn2)n1 [Example 49, 4-(1-(3,4-difluorophenyl)-2-oxo-1,9-diazaspiro[5.5]undecan-9-yl)-6-(1H-pyrazol-1-yl)pyrimidine-2-carbonitrile] | 88 nM
CC1(C(Oc2cc(N3CCC4(CCCC(=O)N4c4ccc(F)c(F)c4)CC3)nc(N)n2)C(F)(F)F)COC1 (racemic) [Example 96, rac-9-(2-amino-6-(2,2,2-trifluoro-1-(3-methyloxetan-3-yl)ethoxy)pyrimidin-4-yl)-1-(3,4-difluorophenyl)-1,9-diazaspiro[5.5]undecan-2-one] | 3 nM
Nc1nc(OC2CCOCC2)cc(N2CCC3(CCCC(=O)N3c3ccc(F)c(F)c3)CC2)n1 [Example 101, 9-(2-amino-6-((tetrahydro-2H-pyran-4-yl)oxy)pyrimidin-4-yl)-1-(3,4-difluorophenyl)-1,9-diazaspiro[5.5]undecan-2-one] | 5 nM
O=C1CC(F)CC2(CCN(c3cc(OC4CCOCC4)ncn3)CC2)N1c1ccc(F)c(F)c1 (racemic) [Example 118, rac-1-(3,4-difluorophenyl)-4-fluoro-9-(6-((tetrahydro-2H-pyran-4-yl)oxy)pyrimidin-4-yl)-1,9-diazaspiro[5.5]undecan-2-one] | 8 nM
Cc1nc(N2CCC3(CCCC(=O)N3c3ccc(F)c(F)c3)CC2)cc(-n2cccn2)n1 [Example 48, 1-(3,4-difluorophenyl)-9-(2-methyl-6-(1H-pyrazol-1-yl)pyrimidin-4-yl)-1,9-diazaspiro[5.5]undecan-2-one] | 45 nM
O=C1CCCC2(CCN(c3cc(-n4cc(C(F)(F)F)cn4)ncn3)CC2)N1c1ccc(F)c(F)c1 [Example 47, 1-(3,4-difluorophenyl)-9-(6-(4-(trifluoromethyl)-1H-pyrazol-1-yl)pyrimidin-4-yl)-1,9-diazaspiro[5.5]undecan-2-one] | 7 nM
O=C1CCCC2(CCN(c3cnnc(N4CCC(O)(C(F)(F)F)CC4)c3)CC2)N1c1ccc(F)c(F)c1 [Example 42, 1-(3,4-difluorophenyl)-9-(6-(4-hydroxy-4-(trifluoromethyl)piperidin-1-yl)pyridazin-4-yl)-1,9-diazaspiro[5.5]undecan-2-one] | 410 nM
NC(=O)c1nc(N2CCC3(CCCC(=O)N3c3ccc(F)c(F)c3)CC2)cc(-n2cc(C(F)(F)F)cn2)n1 [Example 68] | 120 nM
O=C1CCCC2(CCN(c3cc(O[C@@H]4COC[C@H]4F)nc(CO)n3)CC2)N1c1ccc(F)c(F)c1 (racemic) [Example 108, rac-1-(3,4-diflurophenyl)-9-(6-(((3R,4R)-4-fluorotetrahydrofuran-3-yl)oxy)-2-(hydroxymethyl)pyrimidin-4-yl)-1,9-diazaspiro[5.5]undecan-2-one] | 22 nM
CCCOc1ccnc(N2CCC3(CCCC(=O)N3c3ccc(F)c(F)c3)CC2)n1 [Example 85, 1-(3,4-difluorophenyl)-9-(4-propoxypyrimidin-2-yl)-1,9-diazaspiro[5.5]undecan-2-one] | 430 nM
(S)-1-(3,4-difluorophenyl)-9-(2-(hydroxymethyl)-6-((1,1,1-trifluoropropan-2-yl)oxy)pyrimidin-4-yl)-1,9-diazaspiro[5.5]undecan-2-one or (R)-1-(3,4-difluorophenyl)-9-(2-(hydroxymethyl)-6-((1,1,1-trifluoropropan-2-yl)oxy)pyrimidin-4-yl)-1,9-diazaspiro[5.5]undecan-2-one [Example 110a] | 3 nM
O=C1OCCC2(CCN(c3cc(-n4cc(C(F)(F)F)cn4)nc(CO)n3)CC2)N1c1ccc(F)c(F)c1 [Example 114, 1-(3,4-difluorophenyl)-9-(2-(hydroxymethyl)-6-(4-(trifluoromethyl)-1H-pyrazol-1-yl)pyrimidin-4-yl)-3-oxa-1,9-diazaspiro[5.5]undecan-2-one] | 7 nM
Nc1nc(N2CCC3(CCOC(=O)N3c3ccc(F)c(F)c3)CC2)cc(-n2cc(C(F)(F)F)cn2)n1 [Example 115, 9-(2-amino-6-(4-(trifluoromethyl)-1H-pyrazol-1-yl)pyrimidin-4-yl)-1-(3,4-difluorophenyl)-3-oxa-1,9-diazaspiro[5.5]undecan-2-one] | 28 nM
CN(C)c1nc(N2CCC3(CCCC(=O)N3c3ccc(F)c(F)c3)CC2)cc(-n2cccn2)n1 [Example 53, 1-(3,4-difluorophenyl)-9-(2-(dimethylamino)-6-(1H-pyrazol-1-yl)pyrimidin-4-yl)-1,9-diazaspiro[5.5]undecan-2-one] | 1140 nM
Nc1nc(OC2COCC2(F)F)cc(N2CCC3(CCCC(=O)N3c3ccc(F)c(F)c3)CC2)n1 (racemic) [Example 98, rac-9-(2-amino-6-((4,4-difluorotetrahydrofuran-3-yl)oxy)pyrimidin-4-yl)-1-(3,4-difluorophenyl)-1,9-diazaspiro[5.5]undecan-2-one] | 3 nM
(S)-9-(2-amino-6-(2,2,2-trifluoro-1-(oxetan-3-yl)ethoxy)pyrimidin-4-yl)-1-(3,4-difluorophenyl)-1,9-diazaspiro[5.5]undecan-2-one or (R)-9-(2-amino-6-(2,2,2-trifluoro-1-(oxetan-3-yl)ethoxy)pyrimidin-4-yl)-1-(3,4-difluorophenyl)-1,9-diazaspiro[5.5]undecan-2-one [Example 89a] | 1 nM
O=C1CCCC2(CCN(c3cc(-n4cccn4)nc(C(F)(F)F)n3)CC2)N1c1ccc(F)c(F)c1 [Example 51, 9-(6-(1H-pyrazol-1-yl)-2-(trifluoromethyl)pyrimidin-4-yl)-1-(3,4-difluorophenyl)-1,9-diazaspiro[5.5]undecan-2-one] | 70 nM
O=C1CCCC2(CCN(c3nc(Cl)cc(O[C@@H]4CCOC4)n3)CC2)N1c1ccc(F)c(F)c1 [Example 72, (R)-9-(4-chloro-6-((tetrahydrofuran-3-yl)oxy)pyrimidin-2-yl)-1-(3,4-difluorophenyl)-1,9-diazaspiro[5.5]undecan-2-one] | 760 nM
O=C1CCCC2(CCN(c3cc(-n4cc(C(F)(F)F)cn4)nc(CO)n3)CC2)N1c1ccc(F)c(F)c1 [Example 66, 1-(3,4-difluorophenyl)-9-(2-(hydroxymethyl)-6-(4-(trifluoromethyl)-1H-pyrazol-1-yl)pyrimidin-4-yl)1,9-diazaspiro[5.5]undecane-2-one] | 1 nM
O=C1CCCC2(CCN(c3cc(-n4cc(C(F)(F)F)cn4)nc(Cl)n3)CC2)N1c1ccc(F)c(F)c1 [Example 69, 9-(2-chloro-6-(4-(trifluoromethyl)-1H-pyrazol-1-yl)pyrimidin-4-yl)-1-(3,4-difluorophenyl)-1,9-diazaspiro[5.5]undecan-2-one] | 35 nM
Nc1cc(N2CCC3(CCCC(=O)N3c3ccc(F)c(F)c3)CC2)nc(-c2ccccn2)n1 [Example 63, 9-(6-amino-2-(pyridin-2-yl)pyrimidin-4-yl)-1-(3,4-difluorophenyl)-1,9-diazaspiro[5.5]undecan-2-one] | 430 nM
